Test system: HCT116 cells
Test: In vitro cytotoxicity measured by the cell colony formation assay
Type: cell-based
Conditions: HCT116 cells, 72 h drug incubation, colonies counted after 7 days; ID50 = drug concentration producing 50% inhibition of colony formation; read-out: IN VITRO ID 50 (nm) HCT116
Summary of the method: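 Colony-forming survival was scored 7 days after a 72 h, 37 °C compound exposure followed by washout into fresh medium.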

| Compound | IC50 [nM] |
| --- | --- |
| CCC(C)(C)OC(=O)N[C@@H](c1ccco1)[C@@H](O)C(=O)O[C@H]1C[C@@]2(O)[C@@H](OC(=O)c3ccccc3)C3[C@](C)(C(=O)[C@H](O)C(=C1C)C2(C)C)[C@@H](OC(=O)Nc1ccccc1)C[C@H]1OC[C@@]31OC(C)=O (some centres unmarked) [Compound 6399] | < 10 |
| C/C=C/C(=O)N[C@@H](c1ccco1)[C@@H](O)C(=O)O[C@H]1C[C@@]2(O)[C@@H](OC(=O)c3ccccc3)C3[C@](C)(C(=O)[C@H](O)C(=C1C)C2(C)C)[C@@H](OC(=O)NC1CCCCC1)C[C@H]1OC[C@@]31OC(C)=O (some centres unmarked) [Compound 5895] | < 1 |

Same assay, conditions: HCT116 cells, 72 h incubation with drug, colonies counted after 7 days; ID50 = drug concentration producing 50% inhibition of colony formation; read-out: IN VITRO ID 50 (nm) HCT116

| Compound | IC50 [nM] |
| --- | --- |
| CCOC(=O)O[C@H]1C(=O)[C@@]2(C)C([C@H](OC(=O)c3ccccc3)[C@]3(O)C[C@H](OC(=O)[C@H](O)[C@@H](NC(=O)OC(C)C)c4cccs4)C(C)=C1C3(C)C)[C@]1(OC(C)=O)CO[C@@H]1C[C@@H]2O (some centres unmarked) [Compound 2999] | < 1 |
| CCOC(=O)O[C@H]1C[C@H]2OC[C@@]2(OC(C)=O)C2[C@H](OC(=O)c3ccccc3)[C@]3(O)C[C@H](OC(=O)[C@H](O)[C@@H](NC(=O)C=C(C)C)c4ccco4)C(C)=C([C@@H](O)C(=O)[C@@]21C)C3(C)C (some centres unmarked) [Compound 6151] | < 1 |
| CCOC(=O)O[C@H]1C[C@H]2OC[C@@]2(OC(C)=O)C2[C@H](OC(=O)c3ccccc3)[C@]3(O)C[C@H](OC(=O)[C@H](O)[C@@H](NC(=O)OC(C)(C)C)c4ccsc4)C(C)=C([C@@H](O)C(=O)[C@@]21C)C3(C)C (some centres unmarked) [Compound 4500] | < 1 |
| CCOC(=O)O[C@H]1C(=O)[C@@]2(C)C([C@H](OC(=O)c3ccccc3)[C@]3(O)C[C@H](OC(=O)[C@H](O)[C@@H](NC(=O)c4cccnc4)c4cccs4)C(C)=C1C3(C)C)[C@]1(OC(C)=O)CO[C@@H]1C[C@@H]2O (some centres unmarked) [Compound 3300] | < 10 |
| CCOC(=O)O[C@H]1C(=O)[C@@]2(C)C([C@H](OC(=O)c3ccccc3)[C@]3(O)C[C@H](OC(=O)[C@H](O)[C@@H](NC(=O)OC(C)(C)C)c4ccoc4)C(C)=C1C3(C)C)[C@]1(OC(C)=O)CO[C@@H]1C[C@@H]2O (some centres unmarked) [Compound 1838] | < 1 |

Same assay, conditions: HCT116 colony formation; 72 h drug incubation, colonies counted after 7 days; Example 5, C-7 ester/C-10 hydroxy taxanes; read-out: IN VITRO ID 50 (nm) HCT116

| Compound | IC50 [nM] |
| --- | --- |
| CCC(=O)O[C@H]1C[C@H]2OC[C@@]2(OC(C)=O)C2[C@H](OC(=O)c3ccccc3)[C@]3(O)C[C@H](OC(=O)[C@H](O)[C@@H](NC(=O)OC(C)(C)C)c4ccsc4)C(C)=C([C@@H](O)C(=O)[C@@]21C)C3(C)C (some centres unmarked) [Compound 1424] | < 1 |
| C/C=C/C(=O)N[C@@H](c1ccoc1)[C@@H](O)C(=O)O[C@H]1C[C@@]2(O)[C@@H](OC(=O)c3ccccc3)C3[C@](C)(C(=O)[C@H](O)C(=C1C)C2(C)C)[C@@H](OC(=O)CC)C[C@H]1OC[C@@]31OC(C)=O (some centres unmarked) [Compound 4898] | < 1 |
| C/C=C/C(=O)O[C@H]1C[C@H]2OC[C@@]2(OC(C)=O)C2[C@H](OC(=O)c3ccccc3)[C@]3(O)C[C@H](OC(=O)[C@H](O)[C@@H](NC(=O)OC(C)(C)C)c4cccs4)C(C)=C([C@@H](O)C(=O)[C@@]21C)C3(C)C (some centres unmarked) [Compound 6686] | < 1 |
| CCCC(=O)O[C@H]1C[C@H]2OC[C@@]2(OC(C)=O)C2[C@H](OC(=O)c3ccccc3)[C@]3(O)C[C@H](OC(=O)[C@H](O)[C@@H](NC(=O)c4cccs4)c4cccs4)C(C)=C([C@@H](O)C(=O)[C@@]21C)C3(C)C (some centres unmarked) [Compound 4454] | < 1 |
| CC(=O)O[C@@]12CO[C@@H]1C[C@H](OC(=O)C(C)C)[C@@]1(C)C(=O)[C@H](O)C3=C(C)[C@@H](OC(=O)[C@H](O)[C@@H](NC(=O)C(C)C)c4ccco4)C[C@@](O)([C@@H](OC(=O)c4ccccc4)C12)C3(C)C (some centres unmarked) [Compound 6121] | < 10 |
| CC(=O)O[C@@]12CO[C@@H]1C[C@H](OC(=O)C=C(C)C)[C@@]1(C)C(=O)[C@H](O)C3=C(C)[C@@H](OC(=O)[C@H](O)[C@@H](NC(=O)OCC(C)C)c4ccco4)C[C@@](O)([C@@H](OC(=O)c4ccccc4)C12)C3(C)C (some centres unmarked) [Compound 6040] | < 10 |
| CCC(=O)O[C@H]1C[C@H]2OC[C@@]2(OC(C)=O)C2[C@H](OC(=O)c3ccccc3)[C@]3(O)C[C@H](OC(=O)[C@H](O)[C@@H](NC(=O)OCC(C)C)C4CC4)C(C)=C([C@@H](O)C(=O)[C@@]21C)C3(C)C (some centres unmarked) [Compound 5191] | < 10 |
| CCOC(=O)N[C@@H](c1cccs1)[C@@H](O)C(=O)O[C@H]1C[C@@]2(O)[C@@H](OC(=O)c3ccccc3)C3[C@](C)(C(=O)[C@H](O)C(=C1C)C2(C)C)[C@@H](OC(=O)CC)C[C@H]1OC[C@@]31OC(C)=O (some centres unmarked) [Compound 4044] | < 1 |

Same assay, conditions: HCT116 colony formation; 72 h drug incubation, colonies counted after 7 days; Example 10, C-10 ester/C-7 hydroxy taxanes; read-out: IN VITRO ID 50 (nm) HCT116

| Compound | IC50 [nM] |
| --- | --- |
| CCC(=O)O[C@H]1C(=O)[C@@]2(C)C([C@H](OC(=O)c3ccccc3)[C@]3(O)C[C@H](OC(=O)[C@H](O)[C@@H](NC(=O)c4ccco4)c4ccco4)C(C)=C1C3(C)C)[C@]1(OC(C)=O)CO[C@@H]1C[C@@H]2O (some centres unmarked) [Compound 3818] | < 1 |
| CC(=O)O[C@@]12CO[C@@H]1C[C@H](O)[C@@]1(C)C(=O)[C@H](OC(=O)C(C)C)C3=C(C)[C@@H](OC(=O)[C@H](O)[C@@H](NC(=O)OC(C)(C)C)c4ccco4)C[C@@](O)([C@@H](OC(=O)c4ccccc4)C12)C3(C)C (some centres unmarked) [Compound 2269] | < 1 |
| CCC(=O)O[C@H]1C(=O)[C@@]2(C)C([C@H](OC(=O)c3ccccc3)[C@]3(O)C[C@H](OC(=O)[C@H](O)[C@@H](NC(=O)OCC(C)C)c4cccs4)C(C)=C1C3(C)C)[C@]1(OC(C)=O)CO[C@@H]1C[C@@H]2O (some centres unmarked) [Compound 3163] | < 1 |
| CC(=O)O[C@@]12CO[C@@H]1C[C@H](O)[C@@]1(C)C(=O)[C@H](OC(=O)C=C(C)C)C3=C(C)[C@@H](OC(=O)[C@H](O)[C@@H](NC(=O)OC(C)(C)C)c4cccs4)C[C@@](O)([C@@H](OC(=O)c4ccccc4)C12)C3(C)C (some centres unmarked) [Compound 2503] | < 1 |
| CC(=O)O[C@@]12CO[C@@H]1C[C@H](O)[C@@]1(C)C(=O)[C@H](OC(=O)C3CC3)C3=C(C)[C@@H](OC(=O)[C@H](O)[C@@H](NC(=O)OCC(C)C)C4CC4)C[C@@](O)([C@@H](OC(=O)c4ccccc4)C12)C3(C)C (some centres unmarked) [Compound 5232] | < 10 |
| CCCC(=O)O[C@H]1C(=O)[C@@]2(C)C([C@H](OC(=O)c3ccccc3)[C@]3(O)C[C@H](OC(=O)[C@H](O)[C@@H](NC(=O)OC(C)(C)C)c4ccoc4)C(C)=C1C3(C)C)[C@]1(OC(C)=O)CO[C@@H]1C[C@@H]2O (some centres unmarked) [Compound 0999] | < 1 |
| CCOC(=O)N[C@@H](c1ccco1)[C@@H](O)C(=O)O[C@H]1C[C@@]2(O)[C@@H](OC(=O)c3ccccc3)C3[C@](C)(C(=O)[C@H](OC(=O)C4CC4)C(=C1C)C2(C)C)[C@@H](O)C[C@H]1OC[C@@]31OC(C)=O (some centres unmarked) [Compound 3677] | < 1 |
| CC(=O)OC12COC1CC(O)C1(C)C(=O)C(OC(=O)c3cccs3)C3=C(C)C(OC(=O)C(O)C(NC(=O)OC(C)(C)C)c4ccccc4)CC(O)(C(OC(=O)c4ccccc4)C21)C3(C)C (centres unmarked) [Compound 1988] | < 10 |
| CCC(=O)O[C@H]1C(=O)[C@@]2(C)C([C@H](OC(=O)c3ccccc3)[C@]3(O)C[C@H](OC(=O)[C@H](O)[C@@H](NC(=O)OC(C)(C)C)c4ccccc4)C(C)=C1C3(C)C)[C@]1(OC(C)=O)CO[C@@H]1C[C@@H]2O (some centres unmarked) [Compound 0611] | < 10 |
| CC(=O)OC12COC1CC(O)C1(C)C(=O)C(OC(=O)c3ccco3)C3=C(C)C(OC(=O)C(O)C(NC(=O)OC(C)(C)C)c4ccccc4)CC(O)(C(OC(=O)c4ccccc4)C21)C3(C)C (centres unmarked) [Compound 2212] | < 10 |
| CC(=O)O[C@@]12CO[C@@H]1C[C@H](O)[C@@]1(C)C(=O)[C@H](OC(=O)C3CC3)C3=C(C)[C@@H](OC(=O)[C@H](O)[C@H](C=C(C)C)NC(=O)OC(C)(C)C)C[C@@](O)([C@@H](OC(=O)c4ccccc4)C12)C3(C)C (some centres unmarked) [Compound 0838] | < 1 |
| C/C=C/C(=O)N[C@@H](c1cccs1)[C@@H](O)C(=O)O[C@H]1C[C@@]2(O)[C@@H](OC(=O)c3ccccc3)C3[C@](C)(C(=O)[C@H](OC(=O)CC)C(=C1C)C2(C)C)[C@@H](O)C[C@H]1OC[C@@]31OC(C)=O (some centres unmarked) [Compound 3494] | < 1 |
| CC(=O)O[C@@]12CO[C@@H]1C[C@H](O)[C@@]1(C)C(=O)[C@H](OC(=O)C(C)C)C3=C(C)[C@@H](OC(=O)[C@H](O)[C@@H](NC(=O)OC(C)(C)C)c4ccoc4)C[C@@](O)([C@@H](OC(=O)c4ccccc4)C12)C3(C)C (some centres unmarked) [Compound 2273] | < 1 |
| CC(=O)O[C@@]12CO[C@@H]1C[C@H](O)[C@@]1(C)C(=O)[C@H](OC(=O)C(C)C)C3=C(C)[C@@H](OC(=O)[C@H](O)[C@@H](NC(=O)OC(C)(C)C)c4ccsc4)C[C@@](O)([C@@H](OC(=O)c4ccccc4)C12)C3(C)C (some centres unmarked) [Compound 2291] | < 1 |
| C/C=C/C(=O)O[C@H]1C(=O)[C@@]2(C)C([C@H](OC(=O)c3ccccc3)[C@]3(O)C[C@H](OC(=O)[C@H](O)[C@@H](NC(=O)OC(C)(C)C)c4ccccc4)C(C)=C1C3(C)C)[C@]1(OC(C)=O)CO[C@@H]1C[C@@H]2O (some centres unmarked) [Compound 2442] | < 1 |

Same assay, conditions: HCT116 colony formation; 72 h drug incubation, colonies counted after 7 days; Example 15, C-7 substituted acetate/C-10 hydroxy taxanes; read-out: IN VITRO ID 50 (nm) HCT116

| Compound | IC50 [nM] |
| --- | --- |
| CC(=O)OCC(=O)O[C@H]1C[C@H]2OC[C@@]2(OC(C)=O)C2[C@H](OC(=O)c3ccccc3)[C@]3(O)C[C@H](OC(=O)[C@H](O)[C@@H](NC(=O)OC(C)(C)C)c4ccco4)C(C)=C([C@@H](O)C(=O)[C@@]21C)C3(C)C (some centres unmarked) [Compound 5622] | < 1 |

Same assay, conditions: HCT116 colony formation; 72 h drug incubation, colonies counted after 7 days; Example 20, C-10 substituted acetate/C-7 hydroxy taxanes; read-out: IN VITRO ID 50 (nm) HCT116

| Compound | IC50 [nM] |
| --- | --- |
| CCC(C)(C)OC(=O)NC(c1ccco1)C(O)C(=O)OC1CC2(O)C(OC(=O)c3ccccc3)C3C4(OC(C)=O)COC4CC(O)C3(C)C(=O)C(OC(=O)COC)C(=C1C)C2(C)C (centres unmarked) [Compound 6515, N-Debenzoyl-N-tert-amyloxycarbonyl-3′-desphenyl-3′-(2-furyl)-10-methoxyacetyl taxol] | < 1 |
